Assay [1] deals with MCF7PDRC15-1 palbociclib resistant breast cancer cells. As to the kind of experiment: CellTiter-Glo viability, palbociclib-resistant MCF7. The conditions noted are these: Homo sapiens. In kind it is cell-based. The method, then:
Plates were removed from incubator on day six and treated with CellTiter-Glo (Promega, Inc) following manufacturer's specifications. Plates were then read on Biotek luminometer with 1 sec/well integration. Results were converted to Microsoft Excel and transferred to Graphpad Prism for analysis.
The Palbo-R MCF7PDRCL5-1 cells were grown in EMEM, glutamax, 10% FBS, 1×ITS. […] Plates were removed from incubator on day six and treated with CellTiter-Glo (Promega, Inc) following manufacturer's specifications. Plates were then read on Biotek luminometer with 1 sec/well integration. Results were converted to Microsoft Excel and transferred to Graphpad Prism for analysis.
In a similar manner, Palbo-R MCF7PDRCL5-1 cells were grown in EMEM, Glutamax, 10% FBS, 1×ITS. […] Plates were removed from incubator on day six and treated with CellTiter-Glo (Promega, Inc) following manufacturer's specifications. Plates were then read on Biotek luminometer with 1 sec/well integration. Results were converted to Microsoft Excel and transferred to Graphpad Prism for analysis.

For a further assay, the system named is OVCAR-3 xenograft tumor. As to the kind of experiment: OVCAR-3 xenograft tumor fragment model (tumor growth, survival). The conditions noted are these: 100 mpk twice daily. The class given is in vivo, mice. Here is the method: OVCAR-3 xenograft tumor fragments were harvested from host animals and implanted into immune-deficient mice (CR1:NU(NCr)-Fox1^nu). The study was initiated at a mean tumor volume of approximately 175-300 mm^3. […] The test agents were delivered at 10 mL/kg by oral gavage. […] Individual replicate values over the course of the experiment are shown in FIG. 19A, extended out to 42 days post-study initiation.

Where two headings read alike, the source gives them in different places.

Usually IC50 stands for the point on the concentration scale where inhibition reaches its midpoint. `NS(=O)(=O)c1ccc(Nc2ncc3cc4n(c3n2)C2(CCCCC2)C(=O)NN4)cc1` [Compound I]: the IC50 in assay [1] (MCF7, read-out: Cell Viability IC50, Compound I alone, absence of palbociclib) is 995 nM; in assay [1] (MCF7, read-out: Cell Viability IC50, in the presence of 1 μM palbociclib), 17 nM. Besides, the overall survival entry in the assay on OVCAR-3 xenograft tumor is “greatest overall survival”. In addition, in the assay with OVCAR-3 xenograft tumor (oral gavage, 28 days), the tumor volume entry was “reduced tumor volume the most among all treatment conditions”.

The values are drawn from patent US20250199015A1, “CYCLIN-DEPENDENT KINASE 2 INHIBITORS FOR MEDICAL TREATMENT” (INCYCLIX BIO, LLC, priority 2022, published 2025).
